Experimental data taken from patent publication US10704076B2, “Multi-tiered high through-put screen for compounds effective against bacterial biofilm and compounds effective for inhibiting and eradicating bacterial biofilm” (University of Cincinnati, priority 2013, dated 2020).
≈ marks a conversion by molar mass, not a printed value. Entries after “also recorded” stand apart in the source; their conditions may differ. Like-named read-outs stand apart in the source and are kept apart here.

Legend:
P. aeruginosa biofilm = assay: CLSM, co-culture of bacteria with compound (inhibition of biofilm formation); format: cell-based, Pseudomonas aeruginosa; conditions: for killing of residential bacteria, co-culture (CLSM, in words): 10 μM; for Co-culture of bacteria with compound: Killing: Y / —
Protocol: (§1) Broad spectrum agents (effective against all three bacterial species) and single agent compounds identified as HTS hits were investigated with CLSM confirmation of inhibition of biofilm formation (culture of bacteria with compounds) or killing of bacteria residing within an established biofilm (compound addition after culturing biofilm). To evaluate inhibition of P. aeruginosa biofilms, bacteria were sub-cultured into 10% L-broth and grown at 37° C. until the OD600 reached 0.25. The bacteria were further diluted 1:100 into a modified 0.5×M63 minimum media (50 mM KH2PO4, 7.5 mM (NH4)2SO4, 9 μM FeSO4, 0.5% casamino acids, 0.2% glucose, and 1 mM MgSO4). A. baumannii biofilms were also grown in 10% L-broth until the OD600 reached 0.05 but diluted 1:10 into 5% L-broth media. S. epidermidis biofilm cultures were grown. Briefly, the bacteria were grown in TSB until the OD600 reached 0.75, and a 1:100 dilution of the bacteria was sub-cultured into phosphate buffered saline (PBS). All of the biofilm bacterial cultures were grown in 96-well plate chambers (MatTek Corp., Ashland, Mass.) in the presence of 10 μM of each compound or DMSO as a control and incubated for 18 hrs at 37° C. To investigate the ability of compounds to kill bacteria within pre-existing biofilms, biofilms were grown under the same conditions, but without test compound. These biofilms were washed once with PBS and incubated an additional 24 hr at 37° C. in PBS containing 300 μM of each compound. All biofilm cultures were then washed twice with 100 μL of PBS and stained using the LIVE/DEAD® BacLight™ Bacterial Viability Kit (Invitrogen). Finally, biofilm images were obtained using a Zeiss LSM510 META Confocal Microscope (Carl Zeiss, Inc., Germany). A 488 nm laser was used in conjunction with a Plan-Apochromat 100×/1.4 Oil DIC objective. Z-stacks were 8 bit and measured 127.3 μm×127.3 μm×16.0 μm in size. The filters used were 505-530 and 620-680 IR, as the excitation and emission wavelengths for red fluorescence are 490 nm and 635 nm, respectively, and 480 nm and 500 nm for green fluorescence. Three dimensional images were generated using the “Projection” ability on LSM Image Browser software (v.1.4.0.121) or Zeiss LSM image browser software version 3.5 (Carl Zeiss, Inc., Germany), and Live/Dead calculations were conducted based upon these images using MacBiophotonics ImageJ following the guidelines in the cell counting guide by C. Labno {Rasband, 1997-2011 #25; Labno, #2} at the University of Chicago Integrated Light Microscopy Core. The thickness of the biofilm was calculated using Comstat software. A hit was defined as a >50% dead to live ratio.
(§2) The CLSM experiment was performed in one or two or all bacteria used in this study depending on its activity. For the validation of HTS hits, 10 μM of compound was added to each bacterial suspension and the resulting biofilm stained with LIVE/DEAD® BacLight™ Bacterial Viability Kit. The images were analyzed to determine the live and dead ratios of biofilm bacteria, the thickness of biofilms, and structural attributes of biofilms.

S. epidermidis biofilm = assay: as above; format: cell-based, Staphylococcus epidermidis; conditions: for killing of residential bacteria, co-culture (CLSM, in words): 10 μM; for Co-culture of bacteria with compound: Killing: CLSM, 10 μM compound, 18 hrs, Y / —
Protocol: as §1, §2

S. epidermidis = assay: MIC determination (CLSI, Mueller Hinton broth), planktonic cultures; format: cell-based; conditions: Staphylococcus epidermidis
Protocol: A standard protocol for determining the MIC of a specific compound as outlined by the Clinical and Laboratory Standards Institute (CLSI) was used, based on growth of the selected bacteria in Mueller Hinton (MH) broth with subsequent 2-fold dilutions of compounds of interest. Following the CLSI protocols, the MIC of each broad spectrum “hit” compound was performed in all 3 bacterial species in both aerobic and anaerobic conditions. All bacteria were grown in MH broth for 18 hrs at 37° C. The cells were then diluted 100-fold into MH broth containing compounds at concentrations ranging from 0.40-50 μM in the presence of either KNO3 or glucose to allow bacterial growth under anaerobic condition. After 24 hrs of incubation, cell growth was measured at OD600 using a SpectraMax 190 Absorbance Microplate Reader.
The HTS and CLSM assays identified and confirmed compounds that can inhibit biofilms formation in aerobic growth conditions. However, P. aeruginosa and S. epidermidis are capable of growth under anaerobic as well as aerobic conditions. […] The Minimal Inhibitory Concentrations (MIC) of the four broad agent hit compounds under both aerobic and anaerobic conditions of planktonic P. aeruginosa and S. epidermidis cultures were determined to evaluate compound efficacy in different growth conditions. The MICs for A. baumannii were determined only in aerobic conditions. To examine growth in aerobic conditions, bacteria were grown in either Mueller Hinton (MH) media only, MH media in the presence of 1% KNO3, or MH in the presence of 1% glucose. For MIC determinations under anaerobic conditions, growth was examined in MH media with 1% KNO3 or with 1% glucose.

[1] = system: P. aeruginosa established biofilm; assay: CLSM, effect of compound on the pre-existing biofilm; format: cell-based, Pseudomonas aeruginosa; conditions: for Effect of compound on the pre-existing biofilm: Dispersion: ** = Bacterial morphology changed
Protocol: as §1, §2

[2] = MH with 1% Glucose, Aerobic, read-out: Minimum Inhibition Concentration
[3] = MH with 1% Glucose, Anaerobic, read-out: Minimum Inhibition Concentration
[4] = MH with 1% KNO3, Aerobic, read-out: Minimum Inhibition Concentration
[5] = MH with 1% KNO3, Anaerobic, read-out: Minimum Inhibition Concentration
[6] = MH, Aerobic, read-out: Minimum Inhibition Concentration
[7] = across all media and conditions (aerobic and anaerobic), read-out: concentration required to inhibit planktonic S. epidermidis growth (MIC)

Row | SMILES | killing of residential bacteria, co-culture (CLSM, in words) (P. aeruginosa biofilm) | Co-culture of bacteria with compound: Killing (P. aeruginosa biofilm; CLSM, 10 μM compound, 18 hrs) | killing of residential bacteria, co-culture (CLSM, in words) (S. epidermidis biofilm) | Co-culture of bacteria with compound: Killing (S. epidermidis biofilm) | MIC (S. epidermidis; [2]) | MIC (S. epidermidis; [3]) | MIC (S. epidermidis; [4]) | MIC (S. epidermidis; [5]) | MIC (S. epidermidis; [6]) | MIC (S. epidermidis; [7]) | killing of established P. aeruginosa biofilm (CLSM, in words) ([1]; 300 μM, 24 hr) | Effect of compound on the pre-existing biofilm: Killing ([1]; CLSM, 300 μM compound, 24 hr, Y / —) | Effect of compound on the pre-existing biofilm: Dispersion ([1]; CLSM, 300 μM compound, 24 hr) | bacterial morphology in established P. aeruginosa biofilm (CLSM) [1] | biofilm architecture / thickness of established P. aeruginosa biofilm (CLSM) ([1]; 300 μM) | Co-culture of bacteria with compound: Inhibit biofilm formation (P. aeruginosa biofilm; CLSM, 10 μM compound, 18 hrs)
1 | Cn1sc(Cl)c(C#N)c1=O [Compound 3, 5-chloro-2-methyl-3-oxo-1,2-thiazole-4-carbonitrile] | killed residential bacteria | Y (A hit was defined as a >50% dead to live ratio) | killed residential bacteria | Y (A hit was defined as a >50% dead to live ratio) | 10.4 ± 2.08 µM (≈ 1.82 µg/mL) | 16.7 ± 4.17 µM (≈ 2.91 µg/mL) | 25 µM (≈ 4.37 µg/mL) | 16.7 ± 4.17 µM (≈ 2.91 µg/mL) | 20.8 ± 4.17 µM (≈ 3.64 µg/mL) | 10 to 25 µM (≈ 1.75 to 4.37 µg/mL) | demonstrated killing; also recorded: effective at killing | Y (A hit was defined as a >50% dead to live ratio) | – | – | – | –
2 | NC(=S)N1CCN(c2cc3c(cc2F)c(=O)c(C(=O)O)cn3C2CC2)CC1 [Compound 7, 7-(4-carbamothioylpiperazin-1-yl)-1-cyclopropyl-6-fluoro-4-oxoquinoline-3-carboxylic acid] | killed residential bacteria | Y (A hit was defined as a >50% dead to live ratio) | killed residential bacteria | Y (A hit was defined as a >50% dead to live ratio) | 5.86 ± 2.42 µM (≈ 2.29 µg/mL) | 5.21 ± 1.04 µM (≈ 2.03 µg/mL) | 10.4 ± 2.08 µM (≈ 4.07 µg/mL) | 5.21 ± 1.04 µM (≈ 2.03 µg/mL) | 8.33 ± 2.08 µM (≈ 3.25 µg/mL) | 4 to 10 µM (≈ 1.56 to 3.9 µg/mL) | – | – | caused dispersion and Y** | altered the morphology | – | –
3 | O=C(O)c1cn(C2CC2)c2c(F)c(N3CC(O)C3)c(F)cc2c1=O [Compound 8, 1-cyclopropyl-6,8-difluoro-7-(3-hydroxyazetidin-1-yl)-4-oxoquinoline-3-carboxylic acid] | – | – | killed residential bacteria | Y (A hit was defined as a >50% dead to live ratio) | 0.65 ± 0.13 µM (≈ 0.219 µg/mL) | 0.78 ± 0.39 µM (≈ 0.262 µg/mL) | 0.78 ± 0.39 µM (≈ 0.262 µg/mL) | 0.39 µM (≈ 0.131 µg/mL) | 0.65 ± 10.1 µM (≈ 0.219 µg/mL) | < 1 µM | – | – | caused dispersion and Y** | altered the morphology | thinner biofilm architecture | –
4 | O=C(O)c1cn(C2CC2)c2c(F)c(-c3ccncc3)c(F)cc2c1=O [Compound 11, 7-(4-pyridyl)-1-cyclopropyl-6,8-difluoro-4-oxoquinoline-3-carboxylic acid] | – | – | killed | Y (A hit was defined as a >50% dead to live ratio) | 7.81 ± 2.71 µM (≈ 2.67 µg/mL) | 7.29 ± 2.76 µM (≈ 2.5 µg/mL) | 7.81 ± 2.71 µM (≈ 2.67 µg/mL) | 4.17 ± 1.04 µM (≈ 1.43 µg/mL) | 5.73 ± 3.42 µM (≈ 1.96 µg/mL) | 4 to 10 µM (≈ 1.37 to 3.42 µg/mL) | – | – | caused dispersion and Y** | altered the morphology | thinner biofilm architecture | no effect
